Where two headings read alike, the source gives them in different places.
Biological target: NTR1 (Homo sapiens, UniProt P30989)
Test: NTR1 high-content imaging (HCS) dose response, NTR1-U2OS cells
Type: cell-based
Set-up: host or cells: U2OS osteosarcoma
Conditions: n = 4 unless otherwise noted; for EC50: Ave. ± S.E.M., read-out: HCS NTR1 Potency EC50
Excerpt: The cell lines utilized in the high-content imaging assays, which include the NTR1-, NTR2-, and GPR35-U2OS osteosarcomas, were obtained from the laboratory of Dr. Lawrence Barak at the Duke University Medical Center. The media used in the culture of the cell lines, as well as the assays themselves, consisted of Minimum Essential Medium (15-010-CM) and L-glutamine (25-005-CL) from Cellgro/Mediatech (Manassas, Va.), fetal bovine serum (SH30396.03) from Hyclone (Logan, Utah), penicillin-streptomycin solution (PS-20) from Omega Scientific in Tarzana, Calif., G418 (ant-gn-1) from Invivogen (San Diego, Calif.), and zeocin (R250-01) from Invitrogen (Carlsbad, Calif.). Cell lines were cultured in T225 tissue culture flasks (431082) supplied by Corning (Corning, N.Y.). Additional reagents employed include Dulbecco's Phosphate-Buffered Saline (DPBS) (21-031CV) from Cellgro/Mediatech, Trypsin-EDTA 0.05% (25300) from Invitrogen, paraformaldehyde (30528954) from Acros Organics (Geel, Belgium), Hoechst 33342 (H3570) from Invitrogen. The high-content assays were run in 1536-well plates (29326) supplied by Aurora Biotechnology (Poway, Calif.) and utilized aluminum plate seals (T592100) from E&K Scientific (Santa Clara, Calif.).
The neurotensin 1 peptide (N6383) from Sigma-Aldrich (St. Louis, Mo.) was used as a positive control in the NTR1 primary HCS assay. For the NTR2 selectivity assay, the non-specific, small molecule 3-(4-fluorophenyl)-7,8-dimethoxy-5-(4-methylbenzyl)-5H-pyrazolo[4,3-c]quinolone which was synthesized internally was used as a positive control. The GPR35 selectivity screen utilized zaprinast (ALX430-020-M010) from Alexis Biochemicals (Farmingdale, N.Y.) as a control.
The high-content imaging based NTR1 primary screen in 1536-well format was utilized to assay the MLSMR library of chemical entities in the following manner. On day one, 4 uL of a cell suspension containing 350,000 NTR1-U2OS cells per mL is added to each well of a 1536-well assay plate. Cells are plated in MEM medium containing 2.5% Fetal Bovine Serum, 1% Penicillin/Streptomycin solution, 1% L-Glutamine, 400 ug/mL G418, and 200 ug/mL Zeocin. The assay plates are then incubated overnight at 37° C., under 5% CO2. Following the overnight incubation, a volume of 60 nL of the compounds at 2 mM in DMSO (final 20 μM, 1% DMSO) was transferred to columns 5-48 of the assay plates using a LabCyte Echo Liquid Handler. Next, 60 nL of DMSO were dispensed to columns 1-4, which served as the positive and neutral control wells. […] The assay plates were centrifuged on an Eppendorf 5810 centrifuge at 1000 rpm for 1 min to ensure even liquid levels in the wells of the assay plates. The assay plates were then returned to the incubator for 1 hour. Following the hour-long incubation at 37° C., the cells in each well were fixed with 4 uL of 6% paraformaldehyde added with a Multidrop Combi. The assay plates were centrifuged as before and incubated at room temperature for 1 hour. On the Kalypsys, plates were then aspirated down to 2.5 uL per well and washed twice with 11 uL per well of DPBS, followed by a final aspiration to 2.5 uL per well. On the Combi dispenser, 5 uL of 5 ug/mL Hoechst 33342 diluted in DPBS was added to each well of assay plates. The plates were again centrifuged as previously described, sealed, and incubated for at least 1 hour prior to being loaded on a PerkinElmer Opera QEHS.
Image acquisition was performed with a 45 plate capacity loader/stacker and the following settings: 40×0.6 NA air objective, acquisition camera set to 2-by-2 binning for an image size of 688 by 512 pixels, beta-arrestin-GFP acquired using 488 nm laser excitation and 540/75 nm emission filters, DAPI (nuclei) using 365 nm Xenon lamp excitation and 450/50 nm emission filters, 3 fields per well. Image analysis was performed using the Acapella Spot Detection Algorithm. For analysis settings and the metrics employed in the data analyses, please refer to supplemental information.

[1] = read-out: HCS NTR1 Potency Emax

Sequence of NTR1 (P30989 whole entry, species assumed): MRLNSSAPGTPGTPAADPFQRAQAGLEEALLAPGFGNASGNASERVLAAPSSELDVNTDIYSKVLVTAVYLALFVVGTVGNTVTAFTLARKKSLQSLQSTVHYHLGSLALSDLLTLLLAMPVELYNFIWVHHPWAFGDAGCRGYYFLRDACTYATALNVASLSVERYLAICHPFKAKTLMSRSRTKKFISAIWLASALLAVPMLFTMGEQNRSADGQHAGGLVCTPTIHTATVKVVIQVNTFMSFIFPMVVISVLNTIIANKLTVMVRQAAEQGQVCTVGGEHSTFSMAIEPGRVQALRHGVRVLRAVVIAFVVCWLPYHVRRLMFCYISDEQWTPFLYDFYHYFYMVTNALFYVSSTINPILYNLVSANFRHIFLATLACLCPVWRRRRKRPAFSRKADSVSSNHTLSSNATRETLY

Compound	EC50	Emax [1]	Emax (heading: HCS NTR1 Potency Emax)
COc1cc2nc(-c3ccccc3)nc(N3CCN(c4ccccc4OC)CC3)c2cc1OC [6,7-di-OMe; phenyl; 2-OMe, 2-phenyl-6,7-dimethoxy-4-(4-(2-methoxyphenyl)piperazin-1-yl)quinazoline]	20 ± 10.7 µM	78%	
COc1cc2nc(-c3ccccc3)nc(N3CCN(c4ccc(F)cc4)CC3)c2cc1OC [6,7-di-OMe; phenyl; 4-F, 2-phenyl-6,7-dimethoxy-4-(4-(4-fluorophenyl)piperazin-1-yl)quinazoline]	> 80 µM		
COc1cc2nc(Cc3ccccc3)nc(N3CCN(c4ccccc4OC)CC3)c2cc1OC [Compound 309, 2-benzyl-6,7-dimethoxy-4-(4-(2-methoxyphenyl)piperazin-1-yl)quinazoline]	13.8 ± 3.4 µM	81.9%	
CCc1nc(N2CCN(c3ccccc3OC)CC2)c2cc(OC)c(OC)cc2n1 [Compound 310, 2-ethyl-6,7-dimethoxy-4-(4-(2-methoxyphenyl)piperazin-1-yl)quinazoline]	42.6 ± 4.4 µM	100%	
CCCc1nc(N2CCN(c3ccccc3OC)CC2)c2cc(OC)c(OC)cc2n1 [Compound 311, 6,7-dimethoxy-4-(4-(2-methoxyphenyl)piperazin-1-yl)-2-propylquinazoline]	16.6 ± 1.7 µM	100%	
COc1cc2nc(C(C)C)nc(N3CCN(c4ccccc4OC)CC3)c2cc1OC [Compound 312, 2-isopropyl-6,7-dimethoxy-4-(4-(2-methoxyphenyl)piperazin-1-yl)quinazoline]	7.7 ± 1 µM	100%	
COc1cc2nc(CC(C)C)nc(N3CCN(c4ccccc4OC)CC3)c2cc1OC [Compound 313, 2-isobutyl-6,7-dimethoxy-4-(4-(2-methoxyphenyl)piperazin-1-yl)quinazoline]	15.1 ± 1.5 µM	96.3%	
C=Cc1nc(N2CCN(c3ccccc3OC)CC2)c2cc(OC)c(OC)cc2n1 [Compound 314, 6,7-dimethoxy-4-(4-(2-methoxyphenyl)piperazin-1-yl)-2-vinylquinazoline]	7 ± 1 µM	100%	
COc1cc2nc(C3CCCC3)nc(N3CCN(c4ccccc4OC)CC3)c2cc1OC [Compound 316, 2-cyclopentyl-6,7-dimethoxy-4-(4-(2-methoxyphenyl)piperazin-1-yl)quinazoline]	5.8 ± 1.5 µM	92.8%	
COc1cc2nc(CC3CC3)nc(N3CCN(c4ccccc4OC)CC3)c2cc1OC [Compound 317, 2-(cyclopropylmethyl)-6,7-dimethoxy-4-(4-(2-methoxyphenyl)piperazin-1-yl)quinazoline]	14.2 ± 1.2 µM	96.9%	
COc1cc2nc(CCN3CCN(c4ccccc4OC)CC3)nc(N3CCN(c4ccccc4OC)CC3)c2cc1OC [Compound 319, 6,7-dimethoxy-4-(4-(2-methoxyphenyl)piperazin-1-yl)-2-(2-(4-(2-methoxyphenyl)piperazin-1-yl)ethyl)quinazoline]	25.9 ± 13.7 µM	74.3%	
COc1cc2nc(C3CCC3)nc(N3CCN(c4ccccc4C)CC3)c2cc1OC [Compound 323, 2-cyclobutyl-6,7-dimethoxy-4-(4-(o-tolyl)piperazin-1-yl)quinazoline]	14.9 ± 3.2 µM		91.6%
COc1cc2nc(C3CCC3)nc(N3CCN(c4ccccc4F)CC3)c2cc1OC [Compound 324, 2-cyclobutyl-4-(4-(2-fluorophenyl)piperazin-1-yl)-6,7-dimethoxyquinazoline]	17.7 ± 1 µM	97.2%	
COc1cc2nc(C3CCC3)nc(N3CCN(c4ccccc4Cl)CC3)c2cc1OC [Compound 325, 4-(4-(2-chlorophenyl)piperazin-1-yl)-2-cyclobutyl-6,7-dimethoxyquinazoline]	12.2 ± 2.5 µM	70.5%	
COc1cc2nc(C3CCC3)nc(N3CCN(c4ccccn4)CC3)c2cc1OC [Compound 326, 2-cyclobutyl-6,7-dimethoxy-4-(4-(pyridin-2-yl)piperazin-1-yl)quinazoline]	25.5 ± 1.7 µM	91.4%	
COc1cc2nc(C3CCC3)nc(N3CCN(c4ccccc4[N+](=O)[O-])CC3)c2cc1OC [Compound 327, 2-cyclobutyl-6,7-dimethoxy-4-(4-(2-nitrophenyl)piperazin-1-yl)quinazoline]	75.4 ± 1.1 µM	100%	
COc1cccc(N2CCN(c3nc(C4CCC4)nc4cc(OC)c(OC)cc34)CC2)c1 [Compound 328, 2-cyclobutyl-6,7-dimethoxy-4-(4-(3-methoxyphenyl)piperazin-1-yl)quinazoline]	17.2 ± 1 µM	74.9%	
COc1ccc(N2CCN(c3nc(C4CCC4)nc4cc(OC)c(OC)cc34)CC2)cc1 [Compound 329, 2-cyclobutyl-6,7-dimethoxy-4-(4-(4-methoxyphenyl)piperazin-1-yl)quinazoline]	46.4 ± 17.6 µM	100%	
COc1ccc(N2CCN(c3nc(C4CCC4)nc4cc(OC)c(OC)cc34)CC2)c(OC)c1 [Compound 330, 2-cyclobutyl-4-(4-(2,4-dimethoxyphenyl)piperazin-1-yl)-6,7-dimethoxyquinazoline]	22.8 ± 0.4 µM	103%	
COc1cc2nc(C3CCC3)nc(N3CCN(c4c(C)cccc4C)CC3)c2cc1OC [Compound 331, 2-cyclobutyl-4-(4-(2,6-dimethylphenyl)piperazin-1-yl)-6,7-dimethoxyquinazoline]	61.2 ± 5.2 µM	100%	
COc1ccc2nc(C3CCC3)nc(N3CCN(c4ccccc4OC)CC3)c2c1 [Compound 334, 2-cyclobutyl-6-methoxy-4-(4-(2-methoxyphenyl)piperazin-1-yl)quinazoline]	10 ± 1.57 µM	102%	
COc1ccc2c(N3CCN(c4ccccc4OC)CC3)nc(C3CCC3)nc2c1 [Compound 335, 2-cyclobutyl-7-methoxy-4-(4-(2-methoxyphenyl)piperazin-1-yl)quinazoline]	30 µM	112%	
COc1ccccc1N1CCN(c2nc(C3CCC3)nc3ccccc23)CC1 [Compound 336, 2-cyclobutyl-4-(4-(2-methoxyphenyl)piperazin-1-yl)quinazoline]	22.6 ± 3.9 µM	100%	
COc1ccccc1N1CCN(c2nc(C3CCC3)nc3cc4c(cc23)OCO4)CC1 [Compound 337, 6-cyclobutyl-8-(4-(2-methoxyphenyl)piperazin-1-yl)-[1,3]dioxolo[4,5-g]quinazoline]	33.7 ± 16.7 µM	87%	
COc1ccc2nc(C3CC3)nc(N3CCN(c4ccccc4OC)CC3)c2c1 [Compound 338, 2-cyclopropyl-6-methoxy-4-(4-(2-methoxyphenyl)piperazin-1-yl)quinazoline]	4.1 ± 0.5 µM	95.7%	
CCOc1ccccc1N1CCN(c2nc(C3CC3)nc3cc(OC)c(OC)cc23)CC1 [Compound 339, 2-cyclopropyl-4-(4-(2-ethoxyphenyl)piperazin-1-yl)-6,7-dimethoxyquinazoline]	6.1 ± 0.4 µM	98.4%	
COc1cc2nc(C3CC3)nc(N3CCN(c4ccccc4Cl)CC3)c2cc1OC [Compound 340, 4-(4-(2-chlorophenyl)piperazin-1-yl)-2-cyclopropyl-6,7-dimethoxyquinazoline]	19.8 ± 2.2 µM	100%	
COc1cc2nc(C3CC3)nc(N3CCN(Cc4ccc(C)cc4)CC3)c2cc1OC [Compound 342, 2-cyclopropyl-6,7-dimethoxy-4-(4-(4-methylbenzyl)piperazin-1-yl)quinazoline]	25 ± 3.2 µM		

— patent US9868707B2, “Small molecule agonists of neurotensin receptor 1” (SANFORD-BURNHAM MEDICAL RESEARCH INSTITUTE, priority 2012, dated 2018)
